Measured values taken from US10988477B2 (Merck Patent GmbH, priority 2018, dated 2021).

Columns and labels:
[1] = target: intracellular GCN2 (phosphorylation of the GCN2 substrate eIF2α) (Homo sapiens, UniProt Q9P2K8); assay: GCN2 cellular inhibition assay (AlphaScreen SureFire P-eIF2α Ser51, borrelidin-treated U2OS cells); assay type: cell-based; details: compounds of Formula II; biomarker assay, phosphorylated eIF2α Ser51 in borrelidin-treated U2OS cells
Summary of the method: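 U2OS, overnight attach; cpd 4-fold serial dil. from 40 μM final; borrelidin 10 μM, 1 h 37 °C/5% CO2; lyse; AlphaScreen P-eIF2α Ser51 (acceptor 2 h, donor overnight, RT, dark); % inhib. vs borrelidin-only.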

[2] = target: GCN2 kinase (Homo sapiens, UniProt Q9P2K8); assay: GCN2 enzyme inhibition assay (Transcreener ADP2 fluorescence polarization); assay type: biochemical; details: compounds of Formula II; 280 μM ATP, 4 nM GCN2 kinase
Chain of GCN2 kinase (Q9P2K8 whole entry): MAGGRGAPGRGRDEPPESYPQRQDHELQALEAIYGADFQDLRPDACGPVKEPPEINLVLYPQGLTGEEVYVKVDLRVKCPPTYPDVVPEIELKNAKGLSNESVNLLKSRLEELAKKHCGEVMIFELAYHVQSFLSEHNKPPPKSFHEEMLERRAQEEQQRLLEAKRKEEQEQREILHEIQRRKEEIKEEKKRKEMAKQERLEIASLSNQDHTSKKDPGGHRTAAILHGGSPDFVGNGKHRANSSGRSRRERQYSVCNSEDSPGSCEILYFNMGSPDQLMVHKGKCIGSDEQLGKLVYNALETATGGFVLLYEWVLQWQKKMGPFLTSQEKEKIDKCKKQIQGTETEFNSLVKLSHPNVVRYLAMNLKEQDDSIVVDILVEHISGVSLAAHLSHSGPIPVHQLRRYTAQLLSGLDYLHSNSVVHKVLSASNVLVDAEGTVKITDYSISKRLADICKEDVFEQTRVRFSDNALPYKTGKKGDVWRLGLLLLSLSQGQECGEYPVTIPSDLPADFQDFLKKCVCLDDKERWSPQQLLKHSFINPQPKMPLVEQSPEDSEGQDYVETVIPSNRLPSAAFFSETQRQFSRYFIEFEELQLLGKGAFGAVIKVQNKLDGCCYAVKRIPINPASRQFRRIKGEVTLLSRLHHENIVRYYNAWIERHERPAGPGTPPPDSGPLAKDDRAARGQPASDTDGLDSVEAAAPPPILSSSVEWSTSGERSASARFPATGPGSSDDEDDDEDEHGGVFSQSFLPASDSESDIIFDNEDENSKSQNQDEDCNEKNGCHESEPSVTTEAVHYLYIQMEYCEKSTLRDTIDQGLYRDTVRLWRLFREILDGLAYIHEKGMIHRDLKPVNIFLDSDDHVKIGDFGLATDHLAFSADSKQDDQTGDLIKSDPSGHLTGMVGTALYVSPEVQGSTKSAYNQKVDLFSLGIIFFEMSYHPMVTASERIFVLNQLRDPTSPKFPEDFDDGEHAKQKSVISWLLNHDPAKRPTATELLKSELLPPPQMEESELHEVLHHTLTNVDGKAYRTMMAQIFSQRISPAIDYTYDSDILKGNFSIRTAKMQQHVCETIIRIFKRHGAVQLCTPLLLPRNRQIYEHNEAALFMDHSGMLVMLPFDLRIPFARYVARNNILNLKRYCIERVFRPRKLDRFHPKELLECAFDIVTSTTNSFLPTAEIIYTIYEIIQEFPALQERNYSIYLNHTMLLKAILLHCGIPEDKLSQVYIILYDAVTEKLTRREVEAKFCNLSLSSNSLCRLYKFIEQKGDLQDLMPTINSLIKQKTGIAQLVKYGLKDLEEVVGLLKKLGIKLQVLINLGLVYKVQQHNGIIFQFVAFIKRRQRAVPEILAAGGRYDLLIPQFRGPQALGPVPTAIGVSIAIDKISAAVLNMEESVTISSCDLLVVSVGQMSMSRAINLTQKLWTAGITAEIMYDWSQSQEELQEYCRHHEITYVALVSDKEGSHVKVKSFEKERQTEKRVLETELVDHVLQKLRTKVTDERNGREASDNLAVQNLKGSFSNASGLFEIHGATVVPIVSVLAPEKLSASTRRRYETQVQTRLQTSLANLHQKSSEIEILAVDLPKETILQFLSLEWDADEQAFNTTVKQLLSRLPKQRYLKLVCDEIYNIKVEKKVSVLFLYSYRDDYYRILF
Summary of the method: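 ADP formation read by Transcreener FP after a 1 h, 25 °C kinase reaction containing 280 μM ATP, 200 μM (RS)7 substrate and 4 nM GCN2, pH 7.5 Tris buffer. Compounds (0–8 μM final) were added 10 min before ATP. Percent inhibition gave IC50 and apparent Ki via tight-binding fit.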

Chain of intracellular GCN2 (phosphorylation of the GCN2 substrate eIF2α) (Q9P2K8 whole entry): as above

| Structure (SMILES) | IC50 [1] | Ki [2] |
| --- | --- | --- |
| CS(=O)(=O)CCC1CCCN(c2cc(-c3cnc4ccc(C(F)F)nn34)ncn2)C1 (stereo not drawn) [II-493, 6-(Difluoromethyl)-3-(6-(3-(2-(methylsulfonyl)ethyl)piperidin-1-yl)pyrimidin-4-yl)imidazo[1,2-b]pyridazine] | 500 to 5000 nM | 10 to 1000 nM |
| CC1C(CNS(C)(=O)=O)N(CC2CC2)CCN1c1cc(-c2cnc3ccc(C(F)F)nn23)ncn1 (stereo not drawn) [II-495, N-((1-(Cyclopropylmethyl)-4-(6-(6-(difluoromethyl)imidazo[1,2-b]pyridazin-3-yl)pyrimidin-4-yl)-3-methylpiperazin-2-yl)methyl)methanesulfonamide] | < 500 nM | < 10 nM |
| OCCC1CN(c2cc(-c3cnc4ccc(C(F)F)nn34)ncn2)CCN1 (stereo not drawn) [II-496, 2-(4-(6-(6-(Difluoromethyl)imidazo[1,2-b]pyridazin-3-yl)pyrimidin-4-yl)piperazin-2-yl)ethan-1-ol] | > 5000 nM | 10 to 1000 nM |
| OCCC1CCCN(c2cc(-c3cnc4ccc(C(F)F)nn34)ncn2)C1 (stereo not drawn) [II-497, 2-(1-(6-(6-(Difluoromethyl)imidazo[1,2-b]pyridazin-3-yl)pyrimidin-4-yl)piperidin-3-yl)ethan-1-ol] | 500 to 5000 nM | 10 to 1000 nM |
| OCCC1CN(c2cc(-c3cnc4ccc(C(F)F)nn34)ncn2)CCO1 (stereo not drawn) [II-498, 2-(4-(6-(6-(Difluoromethyl)imidazo[1,2-b]pyridazin-3-yl)pyrimidin-4-yl)morpholin-2-yl)ethan-1-ol] | > 5000 nM | 10 to 1000 nM |
| OCCC1CCCN(c2cc(-c3cnc4ccc(C(F)(F)F)nn34)ncn2)C1 (stereo not drawn) [II-499, 2-(1-(6-(6-(Trifluoromethyl)imidazo[1,2-b]pyridazin-3-yl)pyrimidin-4-yl)piperidin-3-yl)ethan-1-ol] | 500 to 5000 nM | 10 to 1000 nM |
| OCCC1CN(c2cc(-c3cnc4ccc(C(F)(F)F)nn34)ncn2)CCO1 (stereo not drawn) [II-500, 2-(4-(6-(6-(Trifluoromethyl)imidazo[1,2-b]pyridazin-3-yl)pyrimidin-4-yl)morpholin-2-yl)ethan-1-ol] | > 5000 nM | 10 to 1000 nM |
| O=C(O)[C@H]1CCCN(c2cc(-c3cnc4ccc(C(F)(F)F)nn34)ncn2)C1 [II-504, (S)-1-(6-(6-(Trifluoromethyl)imidazo[1,2-b]pyridazin-3-yl)pyrimidin-4-yl)piperidine-3-carboxylic acid] | > 5000 nM | 10 to 1000 nM |
| O=C(O)[C@H]1CCCN(c2cc(-c3cnc4ccc(C(F)F)nn34)ncn2)C1 [II-505, (S)-1-(6-(6-(Difluoromethyl)imidazo[1,2-b]pyridazin-3-yl)pyrimidin-4-yl)piperidine-3-carboxylic acid] | > 5000 nM | 10 to 1000 nM |
| O=C(O)[C@@H]1CCCN(c2cc(-c3cnc4ccc(C(F)(F)F)nn34)ncn2)C1 [II-506, (R)-1-(6-(6-(Trifluoromethyl)imidazo[1,2-b]pyridazin-3-yl)pyrimidin-4-yl)piperidine-3-carboxylic acid] | > 5000 nM | 10 to 1000 nM |
| CC1CC(CNS(C)(=O)=O)C(C)N(c2cc(-c3cnc4ccc(C(F)F)nn34)ncn2)C1 (stereo not drawn) [II-511, N-((1-(6-(6-(Difluoromethyl)imidazo[1,2-b]pyridazin-3-yl)pyrimidin-4-yl)-2,5-dimethylpiperidin-3-yl)methyl)methanesulfonamide] | < 500 nM | < 10 nM |
| OC[C@H]1CCCN(c2cc(-c3cnc4ccc(C(F)(F)F)nn34)ncn2)C1 [II-516, (S)-(1-(6-(6-(Trifluoromethyl)imidazo[1,2-b]pyridazin-3-yl)pyrimidin-4-yl)piperidin-3-yl)methanol] | 500 to 5000 nM | 10 to 1000 nM |
| OCC1CN(c2cc(-c3cnc4ccc(C(F)(F)F)nn34)ncn2)CCO1 (stereo not drawn) [II-518, (4-(6-(6-(Trifluoromethyl)imidazo[1,2-b]pyridazin-3-yl)pyrimidin-4-yl)morpholin-2-yl)methanol] | > 5000 nM | 10 to 1000 nM |
| OC[C@H]1CCCN(c2cc(-c3cnc4ccc(C(F)F)nn34)ncn2)C1 [II-519, (S)-(1-(6-(6-(Difluoromethyl)imidazo[1,2-b]pyridazin-3-yl)pyrimidin-4-yl)piperidin-3-yl)methanol] | 500 to 5000 nM | 10 to 1000 nM |
| OC[C@@H]1CCCN(c2cc(-c3cnc4ccc(C(F)F)nn34)ncn2)C1 [II-520, (R)-(1-(6-(6-(Difluoromethyl)imidazo[1,2-b]pyridazin-3-yl)pyrimidin-4-yl)piperidin-3-yl)methanol] | 500 to 5000 nM | 10 to 1000 nM |
| OCC1CN(c2cc(-c3cnc4ccc(C(F)F)nn34)ncn2)CCO1 (stereo not drawn) [II-521, (4-(6-(6-(Difluoromethyl)imidazo[1,2-b]pyridazin-3-yl)pyrimidin-4-yl)morpholin-2-yl)methanol] | 500 to 5000 nM | 10 to 1000 nM |
| CS(=N)(=O)C1CCCN(c2cc(-c3cnc4ccc(C(F)F)nn34)ncn2)C1 (stereo not drawn) [II-522, (1-(6-(6-(Difluoromethyl)imidazo[1,2-b]pyridazin-3-yl)pyrimidin-4-yl)piperidin-3-yl)(imino)(methyl)-λ^6-sulfanone] | 500 to 5000 nM | 10 to 1000 nM |
| [2H]C([2H])([2H])N1CCN(c2cc(-c3cnc4ccc(C(F)F)nn34)ncn2)C(C)C1CNS(C)(=O)=O (stereo not drawn) [II-523, N-((4-(6-(6-(Difluoromethyl)imidazo[1,2-b]pyridazin-3-yl)pyrimidin-4-yl)-3-methyl-1-(methyl-d3)piperazin-2-yl)methyl)methanesulfonamide] | < 500 nM | < 10 nM |
| CC1CN(c2cc(-c3cnc4ccc(C(F)F)nn34)ncn2)CC(CNS(C)(=O)=O)C1=O (stereo not drawn) [II-525, N-((1-(6-(6-(Difluoromethyl)imidazo[1,2-b]pyridazin-3-yl)pyrimidin-4-yl)-5-methyl-4-oxopiperidin-3-yl)methyl)methanesulfonamide] | < 500 nM | < 10 nM |
| CC1CN(c2cc(-c3cnc4ccc(C(F)F)nn34)ncn2)CC(CNS(C)(=O)=O)C1=O (stereo not drawn) [II-526, N-((1-(6-(6-(Difluoromethyl)imidazo[1,2-b]pyridazin-3-yl)pyrimidin-4-yl)-5-methyl-4-oxopiperidin-3-yl)methyl)methanesulfonamide] | < 500 nM | < 10 nM |
| CC1CN(c2cc(-c3cnc4ccc(C(F)F)nn34)ncn2)CC(CNS(C)(=O)=O)C12OCCO2 (stereo not drawn) [II-527, N-((8-(6-(6-(Difluoromethyl)imidazo[1,2-b]pyridazin-3-yl)pyrimidin-4-yl)-10-methyl-1,4-dioxa-8-azaspiro[4.5]decan-6-yl)methyl)methanesulfonamide] | < 500 nM | < 10 nM |
| CS(=O)(=O)NCC1CN(c2cc(-c3cnc4ccc(C(F)F)nn34)ncn2)CC2(CC2)C1(F)F (stereo not drawn) [II-528, N-((5-(6-(6-(Difluoromethyl)imidazo[1,2-b]pyridazin-3-yl)pyrimidin-4-yl)-8,8-difluoro-5-azaspiro[2.5]octan-7-yl)methyl)methanesulfonamide] | < 500 nM | < 10 nM |
| CN1CCN(c2cc(-c3cnc4ccc(C(F)F)nn34)ncn2)CC12CN(S(N)(=O)=O)C2 [II-535, 8-(6-(6-(Difluoromethyl)imidazo[1,2-b]pyridazin-3-yl)pyrimidin-4-yl)-5-methyl-2,5,8-triazaspiro[3.5]nonane-2-sulfonamide] | 500 to 5000 nM | 10 to 1000 nM |
| CC1CN(c2cc(-c3cnc4ccc(C(F)F)nn34)ncn2)CC(CNS(C)(=O)=O)=C1F (stereo not drawn) [II-537, N-((1-(6-(6-(Difluoromethyl)imidazo[1,2-b]pyridazin-3-yl)pyrimidin-4-yl)-4-fluoro-5-methyl-1,2,5,6-tetrahydropyridin-3-yl)methyl)methanesulfonamide] | < 500 nM | < 10 nM |
| CC1=C(F)C(CNS(C)(=O)=O)CN(c2cc(-c3cnc4ccc(C(F)F)nn34)ncn2)C1 (stereo not drawn) [II-538, N-((1-(6-(6-(Difluoromethyl)imidazo[1,2-b]pyridazin-3-yl)pyrimidin-4-yl)-4-fluoro-5-methyl-1,2,3,6-tetrahydropyridin-3-yl)methyl)methanesulfonamide] | < 500 nM | < 10 nM |
| CC1CC(CNS(C)(=O)=O)CN(c2cc(-c3cnc4ccc(C(F)F)nn34)ncn2)C1C (stereo not drawn) [II-544, N-((1-(6-(6-(Difluoromethyl)imidazo[1,2-b]pyridazin-3-yl)pyrimidin-4-yl)-5,6-dimethylpiperidin-3-yl)methyl)methanesulfonamide] | < 500 nM | < 10 nM |
| CC1C2COC(=O)N2CCN1c1cc(-c2cnc3ccc(C(F)F)nn23)ncn1 (stereo not drawn) [II-547, 7-(6-(6-(Difluoromethyl)imidazo[1,2-b]pyridazin-3-yl)pyrimidin-4-yl)-8-methylhexahydro-3H-oxazolo[3,4-a]pyrazin-3-one] | 500 to 5000 nM | 10 to 1000 nM |
| CC1NCCN(c2cc(-c3cnc4ccc(C(F)F)nn34)ncn2)C1C (stereo not drawn) [II-548, 6-(Difluoromethyl)-3-(6-(2,3-dimethylpiperazin-1-yl)pyrimidin-4-yl)imidazo[1,2-b]pyridazine] | > 5000 nM | > 1000 nM |
| CC1C(NS(C)(=O)=O)CCCN1c1cc(-c2cnc3ccc(C(F)F)nn23)ncn1 (stereo not drawn) [II-602, N-(1-(6-(6-(Difluoromethyl)imidazo[1,2-b]pyridazin-3-yl)pyrimidin-4-yl)-2-methylpiperidin-3-yl)methanesulfonamide] | < 500 nM | < 10 nM |
| C[C@@H]1C[C@H](CS(C)(=N)=O)[C@H](C)N(c2cc(-c3cnc4ccc(C(F)F)nn34)ncn2)C1 (stereo partly drawn) [II-607, (((2S,3S,5R)-1-(6-(6-(Difluoromethyl)imidazo[1,2-b]pyridazin-3-yl)pyrimidin-4-yl)-2,5-dimethylpiperidin-3-yl)methyl)(imino)(methyl)-λ^6-sulfanone] | < 500 nM | < 10 nM |
